Results from article PMC3557166, “'Le Rouge et le Noir': A decline in flavone formation correlates with the rare color of black dahlia (Dahlia variabilis hort.) flowers” (BMC Plant Biology, 2012).
Changes are numbered by the printed parent chain.

Key:
[1] = molecular target: T1, FNS II (cv. Aurora's Kiss, GQ489010) (Dahlia pinnata, UniProt G3BGL8); experiment: […]-flavanone conversion to flavone, TLC radioscan, recombinant yeast preparation; assay type: biochemical; conditions: NADPH; labelled compound
T1 construct: full-length ORF in pYES2.1/V5-His-TOPO, expressed in S. cerevisiae INVSc1
T1 sequence (G3BGL8 1-513): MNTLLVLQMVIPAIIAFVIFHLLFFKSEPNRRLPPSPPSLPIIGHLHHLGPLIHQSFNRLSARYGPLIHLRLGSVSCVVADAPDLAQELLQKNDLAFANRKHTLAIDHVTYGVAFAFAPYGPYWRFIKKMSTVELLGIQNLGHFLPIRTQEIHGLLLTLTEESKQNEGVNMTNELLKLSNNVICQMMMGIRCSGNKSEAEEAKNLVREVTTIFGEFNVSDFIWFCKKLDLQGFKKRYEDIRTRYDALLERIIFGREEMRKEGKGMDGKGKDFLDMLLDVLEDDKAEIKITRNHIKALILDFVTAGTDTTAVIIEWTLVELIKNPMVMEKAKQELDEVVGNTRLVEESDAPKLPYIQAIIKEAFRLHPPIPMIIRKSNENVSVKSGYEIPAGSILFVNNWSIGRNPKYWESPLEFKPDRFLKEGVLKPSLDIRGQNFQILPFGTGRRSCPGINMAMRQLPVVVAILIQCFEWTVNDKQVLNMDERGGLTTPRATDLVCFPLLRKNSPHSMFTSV

[2] = molecular target: T2, FNS II (cv. Chat Noir, GQ489008) (Dahlia pinnata, UniProt G3BGL6); experiment: as above; assay type: biochemical; conditions: NADPH; labelled compound
T2 construct: full-length ORF in pYES2.1/V5-His-TOPO, expressed in S. cerevisiae INVSc1
T2 sequence (G3BGL6 1-514): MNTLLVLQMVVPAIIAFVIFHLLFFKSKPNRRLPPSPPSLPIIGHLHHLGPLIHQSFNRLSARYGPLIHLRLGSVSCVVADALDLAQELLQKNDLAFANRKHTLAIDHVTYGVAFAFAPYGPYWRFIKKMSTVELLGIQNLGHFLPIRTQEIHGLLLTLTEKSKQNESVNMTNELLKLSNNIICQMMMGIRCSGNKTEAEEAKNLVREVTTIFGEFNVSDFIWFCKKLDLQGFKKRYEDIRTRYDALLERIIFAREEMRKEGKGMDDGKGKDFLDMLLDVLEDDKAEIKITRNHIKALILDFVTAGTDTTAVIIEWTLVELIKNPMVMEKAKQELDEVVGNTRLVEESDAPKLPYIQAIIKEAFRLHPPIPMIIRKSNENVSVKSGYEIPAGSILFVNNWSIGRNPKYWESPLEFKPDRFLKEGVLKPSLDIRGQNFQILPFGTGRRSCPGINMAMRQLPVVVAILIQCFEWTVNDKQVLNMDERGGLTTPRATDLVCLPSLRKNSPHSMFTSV

[3] = molecular target: T3, FNS II (cv. Feuerschein, GQ479806) (Dahlia pinnata, UniProt G8Z369); experiment: as above; assay type: biochemical; conditions: NADPH; labelled compound
T3 construct: gene DvFNS1; full-length ORF in pYES2.1/V5-His-TOPO, expressed in S. cerevisiae INVSc1
T3 sequence (G8Z369 1-514): T2 sequence (G3BGL6 1-514) with V11I, L83P, D266E, L499F, S501L

[4] = molecular target: T4, FNS II (cv. White Alva, GQ489011) (Dahlia pinnata, UniProt G3BGL9); experiment: as above; assay type: biochemical; conditions: NADPH; labelled compound
T4 construct: full-length ORF in pYES2.1/V5-His-TOPO, expressed in S. cerevisiae INVSc1
T4 sequence (G3BGL9 1-513): T1 sequence (G3BGL8 1-513) with I19L, E28K, A80V, L157Q, E162K, G168S, F224C, V462I

[5] = system: T5, recombinant FNS II (cv. Rubens GQ479808 and cv. Chat Noir GQ489009); experiment: […]-flavanone conversion to luteolin, TLC radioscan, recombinant yeast preparation; assay type: biochemical, Dahlia pinnata; conditions: NADPH; pH optimum 7.50; 25-30°C optimum; labelled compound; clone (GQ479808 or GQ489009) not told; read-out: apparent Km
T5 construct: full-length ORF in pYES2.1/V5-His-TOPO, expressed in S. cerevisiae INVSc1

[6] = molecular target: T6, FNS II (cv. Alva's Supreme, GQ479807) (Dahlia pinnata, UniProt G8Z370); experiment: […]-flavanone conversion to flavone, TLC radioscan, recombinant yeast preparation; assay type: biochemical; conditions: NADPH; labelled compound
T6 construct: full-length ORF in pYES2.1/V5-His-TOPO, expressed in S. cerevisiae INVSc1
T6 sequence (G8Z370 1-514): T2 sequence (G3BGL6 1-514) with V11I, L83P, C184Y, L499F, S501L

[7] = molecular target: T7, FNS II (cv. Rubens, GQ479809) (Dahlia pinnata, UniProt G8Z372); experiment: as above; assay type: biochemical; conditions: NADPH; labelled compound
T7 construct: full-length ORF in pYES2.1/V5-His-TOPO, expressed in S. cerevisiae INVSc1
T7 sequence (G8Z372 1-513): T1 sequence (G3BGL8 1-513) with F24V, E162K, G168S, K421E, D482N, T489A, S512L

[8] = system: T5, recombinant FNS II (cv. Rubens GQ479808 and cv. Chat Noir GQ489009); experiment: […]-flavanone conversion to apigenin, TLC radioscan, recombinant yeast preparation; assay type: biochemical, Dahlia pinnata; conditions: NADPH; pH optimum 6.50; 25-30°C optimum; labelled compound; clone (GQ479808 or GQ489009) not told; read-out: apparent Km

| SMILES | 14C-flavanone conversion to flavone, TLC radioscan, recombinant yeast preparatio [1] | 14C-flavanone conversion to flavone, TLC radioscan, recombinant yeast preparatio [2] | 14C-flavanone conversion to flavone, TLC radioscan, recombinant yeast preparatio [3] | 14C-flavanone conversion to flavone, TLC radioscan, recombinant yeast preparatio [4] | Km [5] [µM] | 14C-flavanone conversion to flavone, TLC radioscan, recombinant yeast preparatio [6] | 14C-flavanone conversion to flavone, TLC radioscan, recombinant yeast preparatio [7] | Km [8] [µM] |
| --- | --- | --- | --- | --- | --- | --- | --- | --- |
| O=C1C[C@@H](c2ccc(O)c(O)c2)Oc2cc(O)cc(O)c21 [eriodictyol] | formation of apigenin and luteolin from naringenin and eriodictyol, respectively | formation of apigenin and luteolin from naringenin and eriodictyol, respectively | formation of apigenin and luteolin from naringenin and eriodictyol, respectively | formation of apigenin and luteolin from naringenin and eriodictyol, respectively | 4.2 | formation of apigenin and luteolin from naringenin and eriodictyol, respectively | formation of apigenin and luteolin from naringenin and eriodictyol, respectively | – |
| O=C1C[C@@H](c2ccc(O)cc2)Oc2cc(O)cc(O)c21 [naringenin] | formation of apigenin and luteolin from naringenin and eriodictyol, respectively | formation of apigenin and luteolin from naringenin and eriodictyol, respectively | formation of apigenin and luteolin from naringenin and eriodictyol, respectively | formation of apigenin and luteolin from naringenin and eriodictyol, respectively | – | formation of apigenin and luteolin from naringenin and eriodictyol, respectively | formation of apigenin and luteolin from naringenin and eriodictyol, respectively | 3.86 |
